Assays:
[1] = Stress test at about 40° C./75% RH for 11 days; assay type: physicochemical
Protocol: The physical stability of aEGCG and the four dispersions were evaluated at different conditions including a typical stress condition of 40° C./75% RH for 11 days, and in media of SGF and SIF for 24 h. Table 1 summarizes the visual observations on the materials after they have been stressed at 40° C./75% RH for 11 days. The aEGCG became a hard material after stress, while all the dispersions were particles or soft aggregates.
XRPD patterns were collected with a PANalytical X'Pert PRO MPD diffractometer using an incident beam of Cu radiation produced using an Optix long, fine-focus source. An elliptically graded multilayer mirror was used to focus Cu Kα X-rays through the specimen and onto the detector. Prior to the analysis, a silicon specimen (NIST SRM 640e) was analyzed to verify the observed position of the Si 111 peak is consistent with the NIST-certified position. A specimen of the sample was sandwiched between 3-μm-thick films and analyzed in transmission geometry. A beam-stop, short antiscatter extension, and antiscatter knife edge were used to minimize the background generated by air. Soller slits for the incident and diffracted beams were used to minimize broadening from axial divergence. Diffraction patterns were collected using a scanning position-sensitive detector (X'Celerator) located 240 mm from the specimen and Data Collector software v. 2.2b. […]

[2] = Stress tests in simulated GI tract media (SGF and SIF), observed under PLM; assay type: physicochemical
Protocol: For stress testing in media, solids of aEGCG and the dispersions were suspended in SGFs and SIFs (see Example 6), and the suspensions were observed under polarized light microscope from time to time to look for the evidence of birefringence and extinction (B/E) of the materials, which is the indication of the occurrence of crystallization in a material.
Polarized light microscopy (PLM) was performed using a Leica DM LP microscope with cross polarizer. SEM was performed using a FEI Quanta 200 scanning electron microscope equipped with an Everhart Thornley (ET) detector. Images were collected and analyzed using xTm (v. 2.01) and XT Docu (v. 3.2) software, respectively. The thermogravimetric analyses (TGA) were performed using a TA Instruments Q5000 IR thermogravimetric analyzer. Each sample was placed in an aluminum sample pan and inserted into the TGA furnace. The furnace was first equilibrated at 25° C., and then heated under N2 at a rate of 10° C./min, up to a final temperature of 350° C. Modulated differential scanning calorimetry (mDSC) data were obtained on a TA Instruments Q2920 differential scanning calorimeter equipped with a refrigerated cooling system (RCS). The test was progressed by modulating temperature±0.8° C. every 60 seconds from 0 to 180° C. The reported glass transition temperature (Tg) is obtained from the inflection point of the step change in the reversing heat flow versus temperature curve.
Solids were suspended in media including simulated gastric fluid (SGF) and simulated intestinal fluid (SIF), and observed under PLM from time to time up to 24 hours for evidence of crystallization indicative by the appearance of birefringence/extinctions. Because of the high solubility of aEGCG, more materials were suspended into the media compared with the dispersions.

[3] = Stability of dispersions of varying weight ratios, about 40° C./75% RH/30 days; assay type: physicochemical
Protocol: For the four polymers identified, further stress tests were carried out on dispersions with varying weight ratios of EGCG to polymer as set forth in Example 8. In these experiments, stressing was done for 30 days at 75% relative humidity at 40° C. for 30 days. FIGS. 50-63 are the XRPD patterns of the prepared dispersions prior to stressing. FIGS. 75-78 are the XRPD patterns after stressing and these too show the samples to amorphous by XRPD. FIGS. 82, 83, and 85 show a peak indicative of NaCl, which is used in the salt both of the humidity chamber storing the samples. Thus, such a peak is not indicative of any crystalline EGCG in the corresponding dispersions. […] Based on the XRPD results, the post-stressing dispersions were x-ray amorphous (other than the NaCl peaks).
20 capsules of Teavigo™ were broken and the solids were suspended in ˜300 mL HPLC grade water and filtered to remove the solids. The resultant solution was clear with no evidence of solid particles observed. The solution was then dried under N2 purge until water is fully removed based on visual observation. Such generated EGCG solids were directly used for generating amorphous EGCG and solid dispersions.
EGCG solid dispersions were prepared by lyophilization using four polymers including HPMC-AS, HPMC-P, Soluplus®, and cellulose acetate. Individual solutions of polymer (in dioxane) and EGCG (in water) were prepared. The EGCG aqueous solution was added into the polymer-dioxane solution slowly. Additional fresh dioxane were added into the samples followed by vigorous vortexing to reach a clear solution without visible solids or colloids.
For lyophilization, each EGCG/polymer solution was frozen in a cold bath of dry ice/acetone (at a temperature of −78° C.). The sample vial was then kept in a lyophilizer at −30° C. for 1 day, −10° C. for 2 days, 0° C. for 1 day, and then 20° C. for 4 hours. Pure EGCG aqueous solution was lyophilized as well to generate amorphous EGCG (EGCG) as a reference material for comparison with the dispersions. The lyophilized materials are free flowing materials.

[4] = Dissolution test in pH 7.4 PBS at 37° C.; assay type: physicochemical; conditions: for Release of EGCG in the first 20 minutes: 20 mg EGCG equivalent in 100 mL; for Visible solids during dissolution test: up to 24 hours
Protocol: As an initial proposition, the dispersions, aEGCG and cEGCG were modeled with respect to pseudo-second order models according to equation 1 where t is time, Q is cumulative release, and Qe the final release and, and k2 the rate constant of pseudo-second order kinetics.
Dissolution testing was performed in 100 mL of standard phosphate-buffered salines (pH 7.4) at 37° C. in a jacketed beaker. The temperature was precisely controlled by a Julabo Heating Circulator. EGCG concentration in the solution was in-situ monitored via an Ocean Optics USB2000+UV-VIS spectrometer equipped with an RT-2MM Dip Probe. The testing was performed with continuous stirring until all solids were dissolved and the medium was free of observable particles, or up to 24 hours. For early period of dissolution, the data acquisition density was relatively large to capture all sudden changes; while at later periods, the data acquisition frequency was reduced due to slow evolution in the medium. For each material, an equivalency of 20 mg EGCG was tested and the experiment was monitored until all solids were dissolved or up to 24 hours. Based on the dissolution data, all EGCG (˜20 mg) were released into the medium within the period of dissolution tests for all samples.

[5] = values as low as; rodents and humans; cited from earlier work
[6] = cited from earlier work

With `O=C(O[C@@H]1Cc2c(O)cc(O)cc2O[C@@H]1c1cc(O)c(O)c(O)c1)c1cc(O)c(O)c(O)c1` [aEGCG, epigallocatechin gallate] the “Visual observation after stress” value [1] was “pink hard material, agg”, the “XRPD of post-stress samples” value [1] was “highly crystalline material” and the “Time to crystallization in SGF” value ([2]; suspended in SGF, PLM) was at most 15 min. For the same molecule, the “Time to crystallization in SIF” value ([2]; suspended in SIF, PLM) was at most 15 min, the “XRPD of post-stressing solids” value ([3]; 40° C./75% RH, 30 days) was “converted to crystalline EGCG” and the Color after stress ([3]; 40° C./75% RH, 30 days, visual observation) was “pink”. The Color as generated ([3]; before stress, visual observation) was “very light pink,”, the “Release profile (in words)” value [4] was “immediate dissolution” and the “Release of EGCG in the first 20 minutes” value [4] was about 100%. For the same molecule, the “Visible solids during dissolution test” value [4] was “dissolved without visible solids”.

For `O=C(O[C@@H]1Cc2c(O)cc(O)cc2O[C@@H]1c1cc(O)c(O)c(O)c1)c1cc(O)c(O)c(O)c1` [EGCG, epigallocatechin gallate], the “Observations under PLM in SGF” value ([2]; simulated gastric fluid, up to 24 h, B/E = birefringence/extinction, indicates crystallization) is given as “B/E observed in 15 min”, the “Observations under PLM in SIF” value ([2]; simulated intestinal fluid, up to 24 h, B/E = birefringence/extinction, indicates crystallization) is given as “B/E observed in 15 min” and the Bioavailability [5] is given as 2-5%. For the same molecule, the “Share present in plasma in free form” value ([6]; Manach et al. 2005) was 77-90% and the Improvement in bioavailability ([6]; coadministration of piperine, Lambert et al. 2004) was 30%.

With `O=C(O[C@@H]1Cc2c(O)cc(O)cc2O[C@@H]1c1cc(O)c(O)c(O)c1)c1cc(O)c(O)c(O)c1` [cEGCG, epigallocatechin gallate] the “Release of EGCG in the first 20 minutes” value [4] was “approximately 93%” and the “Visible solids during dissolution test” value [4] was “dissolved without visible solids”.

From US20200323815A1, “AMORPHOUS DISPERSIONS OF EPIGALLOCATECHIN GALLATE” (AMRI SSCI, LLC, priority 2017, published 2020)
